Test results reported in US8906928B2, “Substituted pyrazolo-pyrrolo-pyridine-dione compounds” (ArQule, Inc., priority 2009, dated 2014).

Experiments:
PC-3 = test: MTS assay (cell growth inhibition), PC-3; assay type: cell-based; settings: PC-3 cells, 72 hours incubation with test compound; concentration not given
How it was run: (§1)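 First, seed 3000 cells per well in low-serum (1% FBS) DMEM and culture 18 h. Next, add compounds prepared at 300× in DMSO and diluted 1:40 in DMEM; incubate 72 h. Finally, add MTS/PMS for 4 h and measure absorbance at 492 nm.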

Kato III = test: MTS assay (cell growth inhibition), Kato III; assay type: cell-based; settings: Kato III cells, 72 hours incubation with test compound; concentration not given
How it was run: as §1

DLD-1 = test: MTS assay (cell growth inhibition), DLD-1; assay type: cell-based; settings: DLD-1 cells, 72 hours incubation with test compound; concentration not given
How it was run: as §1

MDA-MB = test: MTS assay (cell growth inhibition), MDA-MB; assay type: cell-based; settings: MDA-MB cells, 72 hours incubation with test compound; concentration not given
How it was run: as §1

NCI-H1299 = test: MTS assay (cell growth inhibition), NCI-H1299; assay type: cell-based; settings: NCI-H1299 cells, 72 hours incubation with test compound; concentration not given
How it was run: as §1

PACA-2 = test: MTS assay (cell growth inhibition), PACA-2; assay type: cell-based; settings: PACA-2 cells, 72 hours incubation with test compound; concentration not given
How it was run: as §1

melting point | SMILES | MTS CELL KILL DATA (% INHIBITION) PC-3 (PC-3) | MTS CELL KILL DATA (% INHIBITION) Kato III (Kato III) | MTS CELL KILL DATA (% INHIBITION) DLD-1 (DLD-1) | MTS CELL KILL DATA (% INHIBITION) MDA-MB (MDA-MB) | MTS CELL KILL DATA (% INHIBITION) NCI-H1299 (NCI-H1299) | MTS CELL KILL DATA (% INHIBITION) PACA-2 (PACA-2)
285 to 300 °C | O=C1NC(=O)c2c1cnc1[nH]ncc21 [Example 1, pyrazolo[3,4-b]pyrrolo[3,4-d]pyridine-6,8(3H,7H)-dione] | – | – | – | – | – | –
293 to 295 °C | N#Cc1ccc(CN2C(=O)c3cnc4[nH]ncc4c3C2=O)cc1 [Example 41, 4-[(6,8-dioxo-6,8-dihydropyrazolo[3,4-b]pyrrolo[3,4-d]pyridin-7(3H)-yl)methyl]benzonitrile] | – | – | – | – | – | –
– | O=C1c2cnc3[nH]ncc3c2C(=O)N1CC1=Cc2ccccc2S1(=O)=O [Example 119, 7-[(1,1-dioxido-1-benzothien-2-yl)methyl]pyrazolo[3,4-b]pyrrolo[3,4-d]pyridine-6,8(3H,7H)-dione] | C (C = <50% INHIBITION) | C (C = <50% INHIBITION) | C (C = <50% INHIBITION) | B (B = 50-79% INHIBITION) | C (C = <50% INHIBITION) | C (C = <50% INHIBITION)
– | C[C@H](CN1C(=O)c2cnc3[nH]ncc3c2C1=O)c1ccccc1 [Example 121, 7-[(2S)-2-phenylpropyl]pyrazolo[3,4-b]pyrrolo[3,4-d]pyridine-6,8(3H,7H)-dione] | A (A = 80-100% INHIBITION) | C (C = <50% INHIBITION) | C (C = <50% INHIBITION) | B (B = 50-79% INHIBITION) | C (C = <50% INHIBITION) | C (C = <50% INHIBITION)
– | Cc1ccc(OCCN2C(=O)c3cnc4[nH]ncc4c3C2=O)cc1 [Example 125, 7-[2-(4-methylphenoxy)ethyl]pyrazolo[3,4-b]pyrrolo[3,4-d]pyridine-6,8(3H,7H)-dione] | A (A = 80-100% INHIBITION) | C (C = <50% INHIBITION) | C (C = <50% INHIBITION) | A (A = 80-100% INHIBITION) | C (C = <50% INHIBITION) | A (A = 80-100% INHIBITION)
– | O=C1c2cnc3[nH]ncc3c2C(=O)N1CCc1c2ccccc2cc2ccccc12 [Example 129, 7-[2-(9-anthryl)ethyl]pyrazolo[3,4-b]pyrrolo[3,4-d]pyridine-6,8(3H,7H)-dione] | A (A = 80-100% INHIBITION) | C (C = <50% INHIBITION) | A (A = 80-100% INHIBITION) | A (A = 80-100% INHIBITION) | C (C = <50% INHIBITION) | C (C = <50% INHIBITION)
– | O=C1c2ccccc2C(=O)N1CCN1C(=O)c2cnc3[nH]ncc3c2C1=O [Example 131, 7-[2-(1,3-dioxo-1,3-dihydro-2H-isoindol-2-yl)ethyl]pyrazolo[3,4-b]pyrrolo[3,4-d]pyridine-6,8(3H,7H)-dione] | A (A = 80-100% INHIBITION) | A (A = 80-100% INHIBITION) | A (A = 80-100% INHIBITION) | A (A = 80-100% INHIBITION) | A (A = 80-100% INHIBITION) | A (A = 80-100% INHIBITION)
– | Cc1cccc(N(CCC#N)CCN2C(=O)c3cnc4[nH]ncc4c3C2=O)c1 [Example 134, 3-{[2-(6,8-dioxo-6,8-dihydropyrazolo[3,4-b]pyrrolo[3,4-d]pyridin-7(3H)-yl)ethyl](3-methylphenyl)amino}propanenitrile] | C (C = <50% INHIBITION) | C (C = <50% INHIBITION) | C (C = <50% INHIBITION) | C (C = <50% INHIBITION) | C (C = <50% INHIBITION) | C (C = <50% INHIBITION)
